The text below walks through data of patent publication US12529032B2, “Methods and culture substrates for controlled induction of biomimetic neural tissues comprising singular rosette structures” (priority 2017, dated 2026).

The test system of test [1] is spinal neuroepithelial tissues. As to the kind of experiment: Singular neural rosette emergence in micropatterned spinal neuroepithelial tissues, with ROCK inhibition. It is filed as cell-based, human. The note with it: for effect on ability to form neural rosettes: 10 μM ROCK inhibitor, 5 days, spinal neuroepithelial tissues, dihydrochloride. From the text: (§1) NEC biomechanical properties vary by regional phenotype and affect rosette emergence behavior: The inefficient induction of singular rosette emergence in spinal neuroepithelial tissues under micropatterning conditions that were highly efficient for forebrain NECs prompted a re-examination of the optimal circular micropattern size for each regional phenotype. Moreover, we investigated how altering the biomechanical properties of each regional neuroepithelial tissue, by partial inhibition of the Rho-associated protein kinase (ROCK), would affect which micropattern size induced optimal singular rosette emergence. D-1 hESCs and 72-hr caudalized NMPs were seeded at 100,000 and 250,000 cells/cm^2, respectively, onto 150 (0.018 mm^2), 180 (0.025 mm^2), 200 (0.031 mm^2), 250 (0.049 mm^2), and 400 μm (0.126 mm^2) diameter circular micropattern arrays to generate forebrain and spinal neuroepithelial tissues (FIGS. 6A-6B and 6D-6E). […] Similar to our previous results, the efficiency of singular neural rosette emergence for forebrain tissues peaked at 85% on 250 μm (0.049 mm^2) diameter circular micropatterns (FIG. 6C). However, in the presence vs. absence of ROCK inhibitor, the efficiency curve shifted leftward inducing singular rosette emergence in 75% vs. 0% of 150 μm (0.018 mm^2), 89% vs. 50% of 180 μm (0.025 mm^2), 87% vs. 58% of 200 μm (0.031 mm^2), and 11% vs. 85% of 250 μm (0.049 mm^2) diameter forebrain neuroepithelial tissues, respectively.
Generation of Micropatterned Spinal Cord Neuroepithelial Tissues: Caudalization of hPSC-derived cultures to generate micropatterned neuroepithelial tissues of the cervical/thoracic spinal cord was performed using a modified version of the deterministic HOX patterning protocol (36). Human PSCs were dissociated with Accutase and seeded onto MATRIGEL™-coated, 6-well TCPS plates at 150,000 cells/cm^2 in E8 media comprising 10 μM ROCK inhibitor. […]

For test [2], the system named is forebrain neuroepithelial tissues. Description: Singular neural rosette emergence in micropatterned forebrain neuroepithelial tissues, with ROCK inhibition. It is filed as cell-based, human. The note with it: for singular rosette emergence efficiency: presence of 10 μM ROCK inhibitor, 5 days.
From the text: as §1
Generation of Micropatterned Forebrain Neural Tissues: WA09 or HUES3 Hb9::GFP hESCs were maintained in Essential 8 medium (E8) on MATRIGEL™-coated TCPS plates and routinely passaged with Versene (Thermo Fisher). NEC derivation from hPSCs was performed in accordance with the E6 protocol (23). To generate NEC-derived micropatterned tissues at various stages of neural derivation, cells were first rinsed with PBS, dissociated with Accutase (Thermo Fisher) for 5 minutes at 37° C., and collected via centrifugation at 1000 rpm for 5 minutes. Singularized NECs were re-suspended in E6 media with 10 μM ROCK inhibitor (Y27632; R&D Systems) and seeded onto micropatterned substrates at 75,000 cells/cm^2 in 2 mL of media per well. The following day the media was replaced with 2 mL of E6 media and 50% media changes were performed daily thereafter. Alternatively, to generate hPSC-derived micropatterned tissues, hPSC cultures at ˜85% confluency were rinsed with PBS, dissociated with Accutase for 5 minutes at 37° C. and collected via centrifugation at 1000 rpm for 5 minutes. Singularized hPSCs were then suspended in E8 media with 10 μM ROCK inhibitor and seeded onto micropatterned substrates at 100,000 cells/cm^2 in 2 mL of media per well. The following day the media was replaced with 2 mL of E6 media and 50% media changes were performed daily thereafter.
Immunocytochemistry and Microscopy: Micropatterned tissues were rinsed with PBS and fixed with 4% paraformaldehyde (PFA, Sigma Aldrich) in PBS for 10 minutes at room temperature. Following three rinses with phosphate buffered saline (PBS), the micropatterned substrates were blocked and permeabilized in PBS with 5% Donkey Serum and 0.3% Triton X-100 (TX100; Thermo Fisher) (PBS-DT) for 1 hour at room temperature. Next, the tissues were incubated with primary antibodies diluted in PBS-DT for 2 hours at room temperature or overnight at 4° C. Then, the substrates were rinsed in PBD-DT 3 times for 15 minutes each. Secondary antibodies were diluted in PBS-DT and exposed to the tissues for 1 hour at room temperature. Tissue nuclei were subsequently stained with 300 nM 4′,6-diamidino-2-phenylindoldihydrochloride (DAPI, Sigma Aldrich) for 30 minutes followed by three 15 minute PBS washes. The micropatterned substrates were mounted on glass coverslips using Prolong Gold Antifade Reagent (Thermo Fisher). […]

For `C[C@@H](N)[C@H]1CC[C@H](C(=O)Nc2ccncc2)CC1.Cl.Cl` [ROCK inhibitor, (+)-(R)-trans-4-(1-aminoethyl)-N-(4-pyridyl)cyclohexanecarboxamide dihydrochloride], the “effect on ability to form neural rosettes” value was “completely abolished their ability form neural rosettes” in test [1] and “fully eliminate” in test [1] (listed as Rock inhibitor). Besides, the “NEC density in presence vs. absence of ROCK inhibitor” value in test [1] (spinal tissues of a given micropattern size, 10 μM) is “did not vary significantly”; in test [2] (forebrain tissues of a given micropattern size, 10 μM) it was “did not vary significantly”. The “effect on rosette formation capacity” value in test [2] (10 μM Rock inhibitor, forebrain NECs) is recorded as “only partially diminish”. Besides, the “singular rosette emergence efficiency” value in test [2] (150 μm (0.018 mm^2) diameter circular micropatterns) was found to be 75%; in test [2] (180 μm (0.025 mm^2) diameter circular micropatterns), 89%; in test [2] (200 μm (0.031 mm^2) diameter circular micropatterns), 87%; in test [2] (250 μm (0.049 mm^2) diameter circular micropatterns), 11%.
